# Data as given in ChEMBL document CHEMBL6092162, “Identification of novel and potent triazoles targeting CYP51 for antifungal: Design, synthesis, and biological study” (Eur J Med Chem, 2024).
# The source made the active and inactive calls. The calls are words filed in the database; no cut-off is given here.
# What was measured:
# Nakaseomyces glabratus = experiment: Antifungal activity against Candida glabrata assessed as inhibition of fungal growth by CLSI M27-A3 guidelines based method; format: functional
# Candida albicans [1] = experiment: Antifungal activity against fluconazole-resistant Candida albicans clinical isolate 632 assessed as inhibition of fungal growth by CLSI M27-A3 guidelines based method; format: functional
# Candida albicans [2] = experiment: Antifungal activity against fluconazole and iodiconazole resistant Candida albicans clinical isolate 17# assessed as inhibition of fungal growth by CLSI M27-A3 guidelines based method; format: functional
# [3] = Cytotoxicity against human NCI-H460 cells assessed as inhibition of cell growth incubated for 72 hrs by MTT assay; format: toxicity, cell-based
# Candida albicans [4] = experiment: Antifungal activity against fluconazole-resistant Candida albicans clinical isolate 904 assessed as inhibition of fungal growth by CLSI M27-A3 guidelines based method; format: functional
# [5] = Cytotoxicity against HEK293T cells assessed as inhibition of cell growth incubated for 72 hrs by MTT assay; format: toxicity, cell-based, HEK-293T; settings: human
# Pichia kudriavzevii = experiment: Antifungal activity against Candida krusei GIM 2.1 assessed as inhibition of fungal growth by CLSI M27-A3 guidelines based method; format: functional
# Candida tropicalis = experiment: Antifungal activity against Candida tropicalis GIM 2.183 assessed as inhibition of fungal growth by CLSI M27-A3 guidelines based method; format: functional
# [6] = Cytotoxicity against human OVCAR-3 cells assessed as inhibition of cell growth incubated for 72 hrs by MTT assay; format: toxicity, cell-based
# Candida albicans [7] = experiment: Effect on sterol composition in Candida albicans SC5314 assessed as eburicol content at 1 microg/ml measured after 16 hrs by GC-MS analysis relative to control; format: functional; settings: dose 1 µg/ml
# Candida albicans [8] = experiment: Effect on sterol composition in Candida albicans SC5314 assessed as obtusifoliol content at 1 microg/ml measured after 16 hrs by GC-MS analysis relative to control; format: functional; settings: dose 1 µg/ml
# Candida albicans [9] = experiment: Fungicidal activity against Candida albicans SC5314 incubated for 48 hrs by SDA plate based method; format: functional
# Candida albicans [10] = experiment: Antifungal activity against Candida albicans SC5314 assessed as inhibition of fungal growth by CLSI M27-A3 guidelines based method; format: functional
# Candida albicans [11] = experiment: Antifungal activity against fluconazole-resistant Candida albicans clinical isolate 103 assessed as inhibition of fungal growth by CLSI M27-A3 guidelines based method; format: functional
# Candida albicans [12] = experiment: Fungicidal activity against fluconazole and iodiconazole resistant Candida albicans clinical isolate 17# incubated for 48 hrs by SDA plate based method; format: functional
# Candida albicans [13] = experiment: Effect on sterol composition in Candida albicans SC5314 assessed as other sterols content at 1 microg/ml measured after 16 hrs by GC-MS analysis (reference value: 1.06 %); format: functional; settings: dose 1 µg/ml
# Candida albicans [14] = experiment: Antibiofilm activity against Candida albicans CPCC400616 assessed as inhibition of morphological transformation by measuring disappearance of mycelium at 2 microg/ml incubated for 4 hrs by microscopic photograph analysis; format: functional, organism-based; settings: dose 2.0 µg/ml
# Candida albicans [15] = experiment: Antifungal activity against Candida albicans GIM 2.194 assessed as inhibition of fungal growth by CLSI M27-A3 guidelines based method; format: functional
# Candida albicans [16] = experiment: Antifungal activity against fluconazole-resistant Candida albicans clinical isolate 901 assessed as inhibition of fungal growth by CLSI M27-A3 guidelines based method; format: functional
# Candida parapsilosis = experiment: Antifungal activity against Candida parapsilosis GIM 2.190 assessed as inhibition of fungal growth by CLSI M27-A3 guidelines based method; format: functional; settings: Lodderomyces parapsilosis
# Candida albicans [17] = experiment: Antibiofilm activity against fluconazole-resistant Candida albicans CPCC400616 assessed as inhibition of metabolic activity of biofilm measured after 48 hrs by XTT reduction assay; format: functional
# [18] = Cytotoxicity against HUVEC cells assessed as inhibition of cell growth incubated for 72 hrs by MTT assay; format: toxicity, cell-based; settings: human
# Candida albicans [19] = experiment: Antifungal activity against fluconazole-resistant Candida albicans clinical isolate 311 assessed as inhibition of fungal growth by CLSI M27-A3 guidelines based method; format: functional
# Cryptococcus neoformans = experiment: Antifungal activity against Cryptococcus neoformans CGMCC 2.3161 assessed as inhibition of fungal growth by CLSI M27-A3 guidelines based method; format: functional
# Candida albicans [20] = experiment: Effect on sterol composition in Candida albicans SC5314 assessed as lanosterol content at 1 microg/ml measured after 16 hrs by GC-MS analysis relative to control; format: functional; settings: dose 1 µg/ml
# Candida albicans [21] = experiment: Antifungal activity against fluconazole-resistant Candida albicans CaR assessed as inhibition of fungal growth by CLSI M27-A3 guidelines based method; format: functional
# Candida albicans [22] = experiment: Antibiofilm activity against fluconazole-resistant Candida albicans CPCC400616 assessed as inhibition of metabolic activity of biofilm measured after 24 hrs by XTT reduction assay; format: functional
# Candida albicans [23] = experiment: Antifungal activity against fluconazole-resistant Candida albicans clinical isolate 100 assessed as inhibition of fungal growth by CLSI M27-A3 guidelines based method; format: functional
# Candida albicans [24] = experiment: Effect on sterol composition in Candida albicans SC5314 assessed as ergosterol content at 1 microg/ml measured after 16 hrs by GC-MS analysis (reference value: 96.96 %); format: functional; settings: dose 1 µg/ml
# Candida albicans [25] = experiment: Antibiofilm activity against fluconazole-resistant Candida albicans CPCC400616 assessed as inhibition of metabolic activity of biofilm measured after 6 hrs by XTT reduction assay; format: functional
# Candida albicans [26] = experiment: Effect on sterol composition in Candida albicans SC5314 assessed as 14alpha-demethyllanosterol content at 1 microg/ml measured after 16 hrs by GC-MS analysis (reference value: 1.98 %); format: functional; settings: dose 1 µg/ml
# [27] = Oral bioavailability in Sprague-Dawley rat at 10 mg/kg by LC-MS/MS analysis; format: ADME, organism-based; settings: in vivo
# Candida albicans [28] = experiment: Effect on sterol composition in Candida albicans SC5314 assessed as 14alpha-demethyllanosterol content at 0.0625 microg/ml measured after 16 hrs by GC-MS analysis (reference value: 1.98 %); format: functional; settings: dose 0.0625 µg/ml
# [29] = AUC (0 to t) in Sprague-Dawley rat at 3 mg/kg, iv by LC-MS/MS analysis; format: ADME, organism-based; settings: in vivo
# Candida albicans [30] = experiment: Effect on sterol composition in Candida albicans SC5314 assessed as lanosterol content at 0.0625 microg/ml measured after 16 hrs by GC-MS analysis relative to control; format: functional; settings: dose 0.0625 µg/ml
# [31] = MRT(0 to t) in Sprague-Dawley rat at 3 mg/kg, iv by LC-MS/MS analysis; format: ADME, organism-based; settings: in vivo
# [32] = Half-life in Sprague-Dawley rat at 10 mg/kg, po by LC-MS/MS analysis; format: ADME, organism-based; settings: in vivo
# [33] = AUC (0 to t) in Sprague-Dawley rat at 10 mg/kg, po by LC-MS/MS analysis; format: ADME, organism-based; settings: in vivo
# [34] = Tmax in Sprague-Dawley rat at 10 mg/kg, po by LC-MS/MS analysis; format: ADME, organism-based; settings: in vivo
# Candida albicans [35] = experiment: Effect on sterol composition in Candida albicans SC5314 assessed as other sterols content at 0.0625 microg/ml measured after 16 hrs by GC-MS analysis (reference value: 1.06 %); format: functional; settings: dose 0.0625 µg/ml
# Candida albicans [36] = experiment: Effect on sterol composition in Candida albicans SC5314 assessed as ergosterol content at 0.0625 microg/ml measured after 16 hrs by GC-MS analysis (reference value: 96.96 %); format: functional; settings: dose 0.0625 µg/ml
# [37] = Half-life in Sprague-Dawley rat at 3 mg/kg, iv by LC-MS/MS analysis; format: ADME, organism-based; settings: in vivo
# Candida albicans [38] = experiment: Selectivity ratio of MFC for fungicidal activity against Candida albicans SC5314 to MIC80 for antifungal activity against Candida albicans SC5314; format: functional
# [39] = Tmax in Sprague-Dawley rat at 3 mg/kg, iv by LC-MS/MS analysis; format: ADME, organism-based; settings: in vivo
# Candida albicans [40] = experiment: Fungicidal activity fluconazole and iodiconazole resistant Candida albicans clinical isolate 17# assessed as reduction in viable colony count at 0.5 microg/ml measured within 24 hrs by time-kill kinetics assay; format: functional, organism-based; settings: dose 0.5 µg/ml
# Candida albicans [41] = experiment: Effect on sterol composition in Candida albicans SC5314 assessed as eburicol content at 0.0625 microg/ml measured after 16 hrs by GC-MS analysis relative to control; format: functional; settings: dose 0.0625 µg/ml
# [42] = Selectivity index, ratio of IC50 for HEK293T cells to MIC80 for Candida albicans SC5314; format: toxicity, cell-based; settings: human, HEK293T cells versus Candida albicans SC5314; read-out: Selectivity Index
# Candida albicans [43] = experiment: Fungicidal activity fluconazole and iodiconazole resistant Candida albicans clinical isolate 17# assessed as reduction in viable colony count measured for 24 hrs by time-kill kinetics assay; format: functional, organism-based
# Candida albicans [44] = experiment: Effect on sterol composition in Candida albicans SC5314 assessed as obtusifoliol content at 0.0625 microg/ml measured after 16 hrs by GC-MS analysis relative to control; format: functional; settings: dose 0.0625 µg/ml
# [45] = Cmax in Sprague-Dawley rat at 10 mg/kg, po by LC-MS/MS analysis; format: ADME, organism-based; settings: in vivo
# [46] = Apparent volume of distribution in Sprague-Dawley rat at 3 mg/kg, iv by LC-MS/MS analysis; format: ADME, organism-based; settings: in vivo
# [47] = MRT (0 to t) in Sprague-Dawley rat at 10 mg/kg, po by LC-MS/MS analysis; format: ADME, organism-based; settings: in vivo
# [48] = Cmax in Sprague-Dawley rat at 3 mg/kg, iv by LC-MS/MS analysis; format: ADME, organism-based; settings: in vivo
# Candida albicans [49] = experiment: Selectivity ratio of MFC for fungicidal activity against fluconazole and iodiconazole resistant Candida albicans clinical isolate 17# to MIC80 for antifungal activity against fluconazole and iodiconazole resistant Candida albicans clinical isolate 17#; format: functional
structure (smiles),measurement,setting,value
OC(Cn1cncn1)(Cn1cncn1)c1ccc(F)cc1F [FLUCONAZOLE],MIC80,Nakaseomyces glabratus,8 µg/mL
same,MIC80,Candida albicans [1],> 64 µg/mL
same,MIC80,Candida albicans [2],> 64 µg/mL
same,IC50 at 72 h,[3],> 40 µM
same,MIC80,Candida albicans [4],> 64 µg/mL
same,IC50 at 72 h,[5],> 40 µM
same,MIC80,Pichia kudriavzevii,8 µg/mL
same,MIC80,Candida tropicalis,0.25 µg/mL
same,IC50 at 72 h,[6],> 40 µM
same,Activity,Candida albicans [7],60.09%
same,Activity,Candida albicans [8],14.37%
same,MFC,Candida albicans [9],> 64 µg/mL
same,MIC80,Candida albicans [10],0.25 µg/mL
same,MIC80,Candida albicans [11],> 64 µg/mL
same,MFC,Candida albicans [12],> 64 µg/mL
same,Activity,Candida albicans [13],8.64%
same,Activity,Candida albicans [14],Not active; Oval Shaped Yeast Phase Fungi Observed
same,MIC80,Candida albicans [15],0.5 µg/mL
same,MIC80,Candida albicans [16],> 64 µg/mL
same,MIC80,Candida parapsilosis,1 µg/mL
same,MIC50,Candida albicans [17],> 32 µg/mL
same,IC50 at 72 h,[18],> 40 µM
same,MIC80,Candida albicans [19],> 64 µg/mL
same,MIC80,Cryptococcus neoformans,4 µg/mL
same,Activity,Candida albicans [20],9.3%
same,MIC80,Candida albicans [21],> 64 µg/mL
same,MIC50,Candida albicans [22],> 32 µg/mL
same,MIC80,Candida albicans [23],> 64 µg/mL
same,Activity,Candida albicans [24],4.57%
same,MIC50,Candida albicans [25],16 µg/mL
same,Activity,Candida albicans [26],3.03%
CN(Cc1ccc(N2CCN(Cc3ccc(F)cc3Br)CC2)cc1)CC(O)(Cn1cncn1)c1ccc(F)cc1F (stereo not drawn),bioavailability,[27],1.66%
same,MIC80,Nakaseomyces glabratus,0.1 µg/mL
same,Activity,Candida albicans [28],2.78%
same,AUCt,[29],324 ng·h/mL
same,MIC80,Candida albicans [1],8 µg/mL
same,MIC80,Candida albicans [2],0.063 µg/mL
same,IC50 at 72 h,[3],5.22 µM
same,MIC80,Candida albicans [4],8 µg/mL
same,IC50 at 72 h,[5],4.99 µM
same,MIC80,Pichia kudriavzevii,0.1 µg/mL
same,MIC80,Candida tropicalis,0.006 µg/mL
same,IC50 at 72 h,[6],7.72 µM
same,Activity,Candida albicans [30],10.55%
same,MRT last,[31],0.478 h
same,half-life,[32],1.12 h
same,AUC(0-t),[33],14.4 ng·h/mL
same,MFC,Candida albicans [9],0.031 µg/mL
same,MIC80,Candida albicans [10],0.006 µg/mL
same,MIC80,Candida albicans [11],4 µg/mL
same,MFC,Candida albicans [12],0.063 µg/mL
same,Tmax,[34],1 h
same,Activity,Candida albicans [35],4.47%
same,Activity,Candida albicans [36],1.83%
same,t1/2,[37],0.37 h
same,Selectivity ratio,Candida albicans [38],5
same,Tmax,[39],4.98 min
same,Activity,Candida albicans [40],Active
same,Activity,Candida albicans [14],Active
same,Activity,Candida albicans [41],65.56%
same,MIC80,Candida albicans [15],0.013 µg/mL
same,MIC80,Candida albicans [16],> 64 µg/mL
same,MIC80,Candida parapsilosis,0.006 µg/mL
same,MIC50,Candida albicans [17],8 µg/mL
same,IC50 at 72 h,[18],> 10 µM
same,Selectivity ratio,[42],798
same,MIC80,Candida albicans [19],8 µg/mL
same,Activity,Candida albicans [43],Dose-dependent-effect; Much More Effective Than Iodiconazole
same,Activity,Candida albicans [44],14.81%
same,MIC80,Candida albicans [21],0.063 µg/mL
same,Cmax,[45],10.6 ng/mL
same,MIC50,Candida albicans [22],2 µg/mL
same,MIC80,Candida albicans [23],2 µg/mL
same,Vz,[46],4.89 L/kg
same,MRT last,[47],1.12 h
same,Cmax,[48],535 ng/mL
same,MIC50,Candida albicans [25],0.5 µg/mL
same,Selectivity ratio,Candida albicans [49],1
